The values that follow come from patent US10392363B2, “Methods for treating protozoan infections” (Neoculi Pty Ltd., priority 2014, dated 2019).

Data set [1] concerns Mouse macrophages (RAW 264.7). As to the kind of experiment: Cell toxicity assay (WST-1). The class given is cell-based. As to conditions: RAW 264.7, 24 hours, read-out: GI50 macrophage. The procedure: (§1) Cell toxicity assays. Mouse macrophages (RAW 264.7) were grown in RPM11640 media supplemented with L-glutamine and 10% foetal calf serum. Cells were trypsanised when 80% confluent and subcultured every 3-4 days. For cytotoxicity assays cells were diluted to a final cell concentration of 2×10^4 cells/ml and 198 μl added to each well of a 96 well plate. Cells were incubated in a humidified incubator for 2 hours at 37° C. 5% CO2 before the addition of NCL compounds (2 μl/well, previously diluted in DMSO). Campothecin, triton X and DMSO only were used as controls. Cells were exposed to the compounds for 24 hours. The metabolic activity of the cells was determined using the WST-1 assay system (Roche Life Science). The supernatant was removed, 100 μl of PBS with 10% WST-1 was added to each well and incubated for 1 hr before reading absorbance at 450 nm. The selectivity index of the compounds was determined by dividing the IC50 of macrophages by the IC50 against parasites. IC50 was determined via graphpad prism software.
In general terms: Tetrazolium assays rely on reduction of a dye to a coloured formazan, in cell work by metabolically active cells.

Data set [2] has as its system Trypanosoma cruzi (Tulahuen trypomastigotes expressing β-galactosidase, in L6 cells). As to the kind of experiment: In vitro T. cruzi assay for determination of IC50. It counts as cell-based. Conditions: 96 h incubation. The procedure:
The T. cruzi assay uses Tulahuen trypomastigotes expressing the β-galactosidase gene. The parasites were maintained in vitro by serial passage in L6 cells. […] Extracellular trypomastigotes were then removed and NCL compounds were added in seven-point serial dilutions performed in triplicate. Benznidazole (Epichem Pty Ltd.) was included as a control. […] After 4-6 h, a colour change following catabolisation of the reagent by viable T. cruzi was observed and absorbance was read at 530 nm using a Dynex microplate reader. […] For each compound, % inhibition values were used to generate a standard curve from which the IC50 was calculated. Each assay was performed at least twice, and the average was used.

Data set [3] is described as follows: Exposure in male Swiss outbred mice following IV administration. It counts as in vivo. As to conditions: IV 5 mg/kg; for Apparent t1/2: plasma, value marked b is an approximation; for AUC0-inf / Plasma CL / Plasma Vss: values marked a, b are approximations. The procedure:
The systemic exposures of NCL026, NCL195, NCL259 and NCL812 were studied in nonfasted male Swiss outbred mice weighing 26.2-32.1 g. Mice had access to food and water ad libitum throughout the pre- and post-dose sampling period. Each compound was administered IV via a bolus injection into the tail vein (vehicle 20% (v/v) DMSO in PEG400, 1 mL/kg dose volume, n=8 mice per compound). […] A maximum of two samples were obtained from each mouse, with samples being taken either via submandibular bleed (approximately 120 μL; conscious sampling) or terminal cardiac puncture (0.6 mL; while mice were anaesthetised using inhaled Isoflurane). No urine samples were collected as mice were housed in bedded cages during the study. Blood was collected directly into polypropylene Eppendorf tubes containing heparin as anticoagulant, and stabilisation cocktail (containing Complete® (a protease inhibitor cocktail with EDTA) and potassium fluoride) to minimise the potential for ex vivo degradation of the test compounds in blood/plasma samples. Once collected, blood samples were centrifuged immediately, supernatant plasma was removed, and stored at −80° C. until analysis by LC-MS using methods standard in the art. Each compound was administered in a vehicle composed of 20% (v/v) DMSO in PEG400. Formulations were prepared by dissolving the compounds in DMSO prior to addition of PEG400. Formulations were not filtered prior to dosing and were administered to mice within 2.5 h of preparation. […] The dose administered to each mouse was calculated on the basis of the measured concentration in the IV formulation, the dose volume and individual mouse body weight. Plasma concentration versus time data were analysed using non-compartmental methods (WinNonlin Version 6.3.0.395). Standard calculations for each pharmacokinetic parameter were calculated using standard methods in the art.

Data set [4] deals with T. brucei procyclic stage. As to the kind of experiment: T. brucei screening (alamar blue). The class given is cell-based, Trypanosoma brucei. As to conditions: for T. brucei SI: GI50 of macrophages divided by IC50 of parasites. The procedure:
T. brucei screening. Procyclic promastigotes from exponentially growing cells maintained SDM-79 medium were used in all assays. Compounds were initially screened at 10 μM for activity. Compounds were diluted in culture media to a concentration of 20 μM and added to a 96 well plate, after addition of promastigotes (final concentration 4×10^5 cells/ml) compound concentration was 10 μM. Cells were incubated for 48 hrs at 27° C. before the addition of alamar blue and fluorescence measurement as described above. […] Compounds were serially diluted in thirds in culture media resulting in final concentrations ranging from 0.004-10 μM. Promastigotes were added at a final concentration of 4×10^5 cells/ml. Cells were incubated at 27° C. for 48 hours before addition of alamar blue. In addition promastigotes, at a concentration of 8×10^5 were exposed to NCL026 for 1.5 hours before removal of the drug via centrifugation at 5000 rpm for 7 minutes and resuspension of cells in culture media. Cells were incubated for 96 hours at 27° C. and observed daily for metabolic activity (alamar blue assay) and morphological changes. A control culture was exposed to DMSO instead of NCL026.
On the technique in general: Resazurin is reduced to fluorescent resorufin, in cell work by metabolically active cells.

Data set [5] concerns Leishmania donovani promastigotes. As to the kind of experiment: L. donovani screening (Alamarblue). The class given is cell-based. As to conditions: for IC50: 72 hours; for L. donovani SI: GI50 of macrophages divided by IC50 of parasites. The procedure: L. donovani Screening. Procyclic promastigotes from exponentially growing cultures maintained in DME-L+ Bob additions were used for all assays. Compounds were initially screened for activity at 10 μM. Compounds were diluted in culture media to a […] in 96 well plates. Promastigotes were diluted to a density of ˜8×10^5 cells/ml then added to the assay plate resulting in a final cell density of 4×10^5 cells/ml. in 96 well plates. Cells were incubated for 96 hrs at 27° C. before the addition of Alamarblue (thermofisher). Fluorescence was read at excitation 530 nm and Emission 590 nm. […] Compounds were serially diluted in thirds, in a 96 well plate, in cell growth media so that concentrations ranged from 0.005 to 10 μM and promastigotes added to a final concentration of 1×10^6 cells/ml. Cells were incubated at 27° C. for 72 hours before the addition of alamar blue. Fluorescence was measured as above.

The nature of data set [6]: Cell toxicity assay (WST-1). The class given is cell-based, mouse. As to conditions: mouse, RAW 264.7 macrophages, RAW 264.7, 24 hours, read-out: GI50 macrophage. The procedure: as §1
Data set [7] is described as follows: Exposure of NCL195 in male Swiss outbred mice following IP administration. It counts as in vivo. The procedure: The formulation was prepared by dissolving solid NCL195 in DMSO (to 20% (v/v) of the final volume) before adding PEG400, yielding a clear yellow solution that was dosed to mice within 30 minutes of preparation. The measured concentration of NCL195 in the final formulation was 21.9 mg/mL, resulting in a mean administered dose of 43 mg/kg. Following administration, blood samples were collected up to 24 h post-dose (n=2 mice per time point). A maximum of two samples were obtained from each mouse, with samples being taken either via submandibular bleed (approximately 120 μL; conscious sampling) or terminal cardiac puncture (0.6 mL; while mice were anaesthetised using inhaled Isoflurane). No urine samples were collected as mice were housed in bedded cages during the study. Blood was collected directly into polypropylene Eppendorf tubes containing heparin as anticoagulant and stabilisation cocktail (containing Complete® (a protease inhibitor cocktail), potassium fluoride and EDTA) to minimise the potential for ex vivo degradation of NCL195 in blood/plasma samples. Once collected, blood samples were centrifuged immediately, supernatant plasma was removed, and stored in −20° C. until analysis by LCMS using standard methods in the art.

Data set [8] deals with Giardia duodenalis (strain WB trophozoites). As to the kind of experiment: Giardia adherence assay. It counts as cell-based. As to conditions: exposed for 5 hours. The procedure:
Giardia strain WB was grown until confluent (grown and maintained in TYI-S-33 medium with 10% foetal bovine serum). For the assay, media of a confluent culture was replaced with fresh TYI-S-33 medium. Cultures were then cold shocked (on ice) for 40 minutes to detach trophozoites. The cell density of the cultures was adjusted to 1×10^6 cells/ml and 1 ml was added to each well of a 24 well plate already containing 1 ml of diluted compounds (see below). […] After incubation the coverslips were removed, air-dried and stained with Diff-Quik (a Romanowski stain variant). Coverslips were mounted onto glass slides using polymount. Images at 10× magnification were taken at 5 random locations per coverslip. […] Stock solutions of compounds were prepared in DMSO at 25.6 mg/ml. Compounds were diluted 1:100 in TYI-S-33 medium. A 1:2 serial dilution was then performed in TYI-S-33 medium in 24 well plates.

Data set [9] concerns giardia. Conditions: cited from earlier work.
The subject of data set [10] is Giardia duodenalis trophozoites. As to the kind of experiment: Resazurin reduction assay (Example 3). It counts as cell-based. As to conditions: 42 hours, then 6 hours with Alamarblue. The procedure:
Giardia trophozoites were grown until confluent. The media was replaced with fresh media and they were cold shocked for 40 minutes (as above). Cells were diluted to a concentration of ˜500 000 cells/ml and 100 μl were added to each well of the assay plate (except media only control). The assay was incubated in an anaerobic environment (candle jar) for 42 hours at 37° C. […] After incubation the absorbance of each sample was read at 570 and 630 nm. The percent reduction of resazurin (Alamarblue™) was calculated and data was analysed with GraphPad Prism v6 software. Assay set-up: the assay was performed in 96 well plates in a total volume of 200 μl. 100 μl of NCL812 or NCL062 (concentration of 25.6 mg/ml in DMSO) or metronidazole (concentration 5 mg/ml in DMSO) stock was added to 9.9 ml of TYI-S-33 medium, then serially diluted 1:2 in the same medium. Cells were added as above.

As usually defined, the GI50 is the concentration that inhibits growth by half. What is called IC50 is the concentration that inhibits the measured activity by half. As for `N#Cc1cccc(C=NNC(=N)NN=Cc2cccc(C#N)c2)c1` [NCL026], the GI50 in [1] turned out to be 9600 ± 990 nM. Also, in data set [2], the midpoint of inhibition, the IC50, lay at 1400 nM. In [3], the “Apparent t1/2” value came out at 1.5 h, the AUC0-inf amounted to 2.5 µM·h, the “Plasma CL” value is 100.6 mL/min/kg and the “Plasma Vss” value is on record as 6.9 L/kg. Also, in data set [4] (10 μM, 48 hrs), the “reduction of metabolic activity / inhibitory effect on T. brucei” value is recorded as “greatest inhibitory effect”. Also, the IC50 in data set [4] (48 hours) worked out at 1700 nM. The same compound had an IC50 in data set [4] (48 hours, listed as NCL 026) of 1680 ± 630 nM. The “T. brucei SI” value in data set [4] stood at 5.71. In data set [5], the IC50 was determined as 2500 ± 130 nM and the “L. donovani SI” value is 3.84.

On to `Cl.N=C(NN=Cc1ccc(SC(F)(F)F)cc1)NN=Cc1ccc(SC(F)(F)F)cc1` [NCL166], for which the GI50 in data set [1] turned out to be 9460 ± 50 nM. In [5], the IC50 was 3230 ± 1000 nM and the “L. donovani SI” value stood at 2.78.

On to `CN(C)c1ccc(C=NNC(=N)NN=Cc2ccc(N(C)C)cc2O)c(O)c1` [NCL171], for which the GI50 in [1] stood at 12500 ± 3610 nM. Further, the concentration for half-maximal inhibition (IC50) in data set [4] (48 hours) is 1400 nM; in [4] (48 hours, listed as NCL 171), 1370 ± 30 nM. Also, the entries for the “T. brucei SI” value in data set [4] and in [4] (listed as NCL 171) were “relatively selective” and 9.14, respectively.

In the case of `Cc1ccc(/C=N/Nc2cc(N/N=C/c3ccc(C)cc3)nc(N)n2)cc1` [NCL195, 4,6-bis(2-((E)-4-methylbenzylidene)hydrazinyl)pyrimidin-2-amine], the GI50 at 24 h in data set [6] was determined as 5780 ± 330 nM. Besides, in [7] (IP, 43 mg/kg), the absorption after dosing entry is on record as “rapidly absorbed” and the “adverse reactions or compound-related side effects” value is reported as “No adverse reactions or compound-related side effects”. Moreover, the “duration of exposure at a plasma concentration >8 μg/mL” value in data set [7] (extrapolated to IP 100 mg/kg, assuming dose proportionality) is recorded as “at least 7.5 hours”. In data set [3], the “Apparent t1/2” value was 2.4 h, the AUC0-inf came to 12.5 µM·h, the “Plasma CL” value came out at 16.3 mL/min/kg and the “Plasma Vss” value came out at 2.6 L/kg. The IC50 in data set [4] (48 hours) is 1460 ± 760 nM. Besides, the “T. brucei SI” value in data set [4] was 3.79. Also, the concentration for half-maximal inhibition (IC50) in data set [4] (Trypanosoma brucei, 48 h) was found to be 1500 nM. For the same compound, in [5] (Leishmania donovani, 10 μM, 96 hrs, read-out: reduction of metabolic activity / inhibition of L. donovani), the inhibition at 10 µM was found to be 100%.

In the case of `Cc1ncc([N+](=O)[O-])n1CCO` [metronidazole, reference compound], the “number of adherent trophozoites” value in [8] is “significant decreases”. The median efficacy entry in [9] (giardia treatment) is listed as “approximately 89%”. Besides, the “giardia curative rate (clearance of the protozoan)” value in data set [9] (human adult and paediatric patients, 5-10 days, reported as low as) is recorded as at least 60%. Also, the “metabolic activity of the trophozoites (percentage of reduction of resazurin)” value in [10] is recorded as “reduction in the metabolic activity”.

For `CC(=O)Oc1ccccc1C(=O)Nc1ncc([N+](=O)[O-])s1` [nitazoxanide], in data set [9] (giardia), the “overall response rate (clearance of the protozoan)” value is recorded as 75%.
